How the values were obtained:
[1] = test system: cerebellar granule neurons (CGN); assay: Neuronal differentiation (neurite outgrowth) in primary CGN cultures; assay type: cell-based, rat; conditions: CGN grown 24 h in presence of peptide; FIGS. 1-5
Method: Primary cultures of cerebellar granule neurons (CGN) from seven days old rats were plated at a density of 10,000 cells/cm^2 in eight-well permanox chamber slides and left to differentiate for 24 hours in the presence of various concentrations of peptide. Cells were fixated and immuno-stained for GAP-43 to visualise only neurons. CGN cultures were fixed in 4% paraformaldehyde followed by blocking with 1% BSA and then incubateded with polyclonal rabbit antibodies against rat GAP-43 (Chemicon, AH Diagnostics, Aarhus, Denmark) (1:1000 dilution with 1% BSA) followed by incubation with secondary Alexa Fluor® 488 goat anti-rabbit antibodies (Molecular Probes, Eugene, Oreg., USA) (1:700 dilution with 1% BSA. Neurite length was estimated by means of a stereological approach (Rønn et al., 2000). Results are expressed as percentage neurite outgrowth±SEM, with the untreated controls set at 100%. Statistics are performed with a Student's paired t-test. *=p<0.05, **=p<0.01, ***=p<0.001. If not specifically indicated, four experiments were performed for each condition. 2.

[2] = test system: cerebellar granule neurons (CGN); assay: Cell survival assay, low-potassium induced apoptosis of CGN; assay type: cell-based, rat; conditions: apoptosis induced by 5 mM KCl medium, 48 h; FIGS. 6-9
Method: Primary CGN cultures from seven days old rats were plated at a density of 100,000 cells/cm^2 in eight-well permanox chamber slides coated with poly-D-Lysine and grown in a medium supplemented with 40 mM KCl. After 24 hours cytosine-β-D-arabinofuranoside was added to the culture to inhibit proliferation of non-neuronal cells. Neurons were left to differentiate for further 6 days in vitro, before apoptosis was induced by shifting cells into a starving medium containing either 5 mM KCl alone (negative control), 40 mM KCl (positive control) or 5 mM KCl plus various concentrations of peptide. 48 hours after apoptosis induction cells were fixated and stained with Hoechst 33258. Neuronal viability was estimated by comparing the amount of live neurons with the total number of neurons based on nuclear morphology. Results (see FIGS. 6-9) from at least four independent experiments are expressed as percentage survival±SEM, with the negative control set at 100%. Statistics are performed with a Student's paired t-test. *=p<0.05, **=p<0.01, ***=p<0.001. CGN from 7-day-old rats were induced to differentiate for 7 days in a medium with a high potassium concentration after which the neurons were grown for two days in a low potassium medium either in the absence or presence of IGF-1 (positive control), or the MT-derived peptides.

[3] = target: MT2 protein (from Sigma); assay: Surface plasmon resonance (SPR) analysis of peptide binding to immobilized MT2; conditions: for Kd / ka / kd: 25° C., PBS pH 7.4, immobilized MT2; for binding to MT2 protein immobilized on a sensor chip: difference to blank chip
Method: FIG. 12 Binding of the MTAcc peptide to MT studied by means of SPR analysis. Approximately 2000 resonance units (RU) of the MT2 protein (Sigma) were immobilized on the sensor chip. The binding is given as the response difference between the binding to the sensor chip with the immobilized MT2 and a blank sensor chip (unspecific binding). The peptide was injected into the sensor chip at a concentration of 0.87 μM. The experiment was repeated four times. FIG. 13 Binding of the MTBcc peptide to MT studied by means of SPR analysis. Approximately 2000 resonance units (RU) of the MT2 protein (Sigma) were immobilized on the sensor chip. The binding is given as the response difference between the binding to the sensor chip with the immobilized MT2 and a blank sensor chip (unspecific binding). The peptide was injected into the sensor chip at a concentration of 8.32 μM. The experiment was repeated four times. FIG. 14 Binding of the MTAn peptide to MT studied by means of SPR analysis. Approximately 2000 resonance units (RU) of the MT2 protein (Sigma) were immobilized on the sensor chip. The binding is given as the response difference between the binding to the sensor chip with the immobilized MT2 and a blank sensor chip (unspecific binding). The peptide was injected into the sensor chip at a concentration of 1.7 μM. Analysis of binding was performed employing a BIAcoreX instrument (Biosensor AB, Uppsala, Sweden) at 25° C. using 10 mM pH 7.4 sodium phosphate containing 150 mM NaCl as running buffer (phosphate-buffered saline, PBS). The flow-rate was 5 μl/min. Data were analysed by non-linear curve-fitting using the manufacturer's software. The MT2 protein (from Sigma) was immobilized on a sensor chip CM5 using an amine coupling kit (Biosensor AB) as follows: the chip was activated by 20 μl activation solution; the protein was immobilized using 12 μl 20 μg/ml protein in 10 mM sodium phosphate buffer pH 6.0; the chip was blocked by 35 μl blocking solution. Various peptides at the indicated concentrations were injected into the sensor chip. The curve corresponding to the difference between binding to MT2 and a blank chip was used for analysis.

[4] = test system: cerebellar granule neurons (CGN); assay: TUNEL assay (DNA fragmentation) in CGN; assay type: cell-based, rat; conditions: 24 h after apoptosis induction; FIG. 10
Method: Primary cultures of seven days old rats were plated, cultured and induced to under-go apoptosis as described above for neuronal survival, however cells were fixated 24 hour after apoptosis induction. By using the Fluorescien FragEL DNA fragmentation Kit, which label free DNA ends with a green fluorescent colour, the amount of neurons undergoing DNA fragmentation can be estimated and compared to the total amount of cells, which are stained with propidium idodide. Results (see FIG. 10) from at least four independent experiments are expressed as percentage TUNEL positive cells±SEM, with the negative control set at 100%. Statistics are performed with a Student's paired t-test. *=p<0.05, **=p<0.01, ***=p<0.001.

[5] = test system: focal brain injury on the right fronto-parietal cortex; assay: Neuronal rescue and tissue repair in vivo after focal brain injury (dry-ice lesion); set-up: species or system rat; conditions: rats, tetrameric form of peptide s.c. 10 mg/kg/injection, FIG. 11
Method: A focal brain injury on the right fronto-parietal cortex was made by applying a piece of dry-ice (−78° C.) directly onto the skull for 30 seconds in mice and 60 seconds in rats, as previously described in detail (Penkowa and Moos, 1995). The rats were treated s.c. with the tetrameric form of the MTAcc peptide ([…]) one day before lesion and one and two days after the lesion (10 mg/kg bodyweight/injection). Three days after the lesion animals were fixed by transcardial perfusion with paraformaldehyde. Histochemistry and immunohistochemistry (IHC) were performed on sections cut from organs taken from fixated animals. For immunohistochemical investigation, brains were dissected and postfixed in Zamboni's fixative for 2-3 hours, dehydraded in graded alcohol followed by xylol and subsequently embedded in paraffin before being cut in 3 μm frontal sections throughout the entire area of the lesion. Terminal deoxynucleotidyl transferase (TdT)-mediated deoxyuridine triphosphate (dUTP)-biotin nick end labeling (TUNEL) was performed using the Fragment End Labeling (FragEL™) Detection Kit (Calbiochem, USA, code QIA33). The FragEL kit contains all the materials used below and each step was performed according to the manufacturer's recommendations. Sections were also immunostained for markers of oxidative stress such as peroxynitrite-induced nitration of tyrosine residues (NITT) and malondialdehyde (MDA) andfor markers of inflammation such as interleukin (IL)-1, IL-12 and tumor necrosis factor (TNF) α, as described by Penkowa et al. (2000).

Row | Substance | neurite outgrowth / differentiation of cerebellar primary neurons [1] | neuronal survival of CGN [2] | ka [3] | kd [3] | binding to MT2 protein immobilized on a sensor chip [3] | also measured
1 | KGGEAAEAEAEK (listed as Homo sapiens) [MT31p] | no neuritogenic activity | promoted survival of CGN in a dose dependent manner |  |  |  | 
2 | MDPNCSCAAGDSST (listed as Homo sapiens) [MTBnc] | stimulated differentiation of cerebellar primary neurons | promoted survival of CGN in a dose dependent manner |  |  |  | 
3 | KKSSCSCSPVGSAK [MTAn] |  |  | 1.57 ± 0.05 × 10^4 M^−1 s^−1 | 5.74 ± 0.19 × 10^−3 s^−1 | specifically bind | Kd [3]: 367 nM
4 | AQGSISKGASDKSS (listed as Homo sapiens) [MTAc] | stimulated differentiation of cerebellar primary neurons | promoted survival of CGN in a dose dependent manner |  |  |  | 
5 | MDPNSSSAAGDSST (listed as Homo sapiens) [MTBn] | no neuritogenic activity | promoted survival of CGN in a dose dependent manner |  |  |  | 
6 | SAGSCKCKESKSTS [MTBcc] | stimulated differentiation of cerebellar primary neurons | promoted survival of CGN in a dose dependent manner | 2.83 ± 0.93 × 10^3 M^−1 s^−1 | 5.01 ± 1.75 × 10^−4 s^−1 | specifically bind | number of apoptotic neurons (TUNEL positive cells, DNA fragmentation) [4]: strongly reduced the number of apoptotic neurons
7 | IGF-1: positive control in the CGN survival assay [reference compound] |  | could be prevented |  |  |  | 
8 | AQGSICKGASDKSS [MTAcc, tetrameric form used in vivo] | stimulated differentiation of cerebellar primary neurons | promoted survival of CGN in a dose dependent manner | 4.54 ± 0.21 × 10^3 M^−1 s^−1 | 4.00 ± 0.27 × 10^−4 s^−1 | specifically bind | number of apoptotic neurons (TUNEL positive cells, DNA fragmentation) [4]: strongly reduced the number of apoptotic neurons; number of apoptotic cells (TUNEL staining) ([5]; day -1, +1, +2, analysed 3 days after lesion): dramatic decrease of the number of apoptotic cell; inflammatory response to the lesion (IL-1, IL-12 and TNFα immunostaining) ([5]; 3 days after lesion): inhibition of the inflammatory response to the lesion; oxidative stress (NITT and MDA immunostaining) ([5]; 3 days after lesion): inhibition of oxidative stress; Kd [3]: 89.5 nM
9 | SAGSSKSKESKSTS (listed as Homo sapiens) [MTBc] | stimulated differentiation of cerebellar primary neurons | promoted survival of CGN in a dose dependent manner |  |  |  | 

Source: US9518089B2, “Metallothionein-derived peptide fragments” (University of Tasmania, priority 2006, dated 2016)
